{
  "source": "paper PMC9107402",
  "about": "(European Journal of Clinical Pharmacology, 2022)",
  "key": {"[1]": {"details": "alteration of gastric pH; cited from earlier work"}, "[2]": {"system": "CYP2C19", "assay": "clinical", "details": "human, in vivo; for Cl/F / Tmax: po", "experimental": "This was an open-label clinical trial with fixed sequence design consisting of a total of seven inpatient study days and eight short visits for each participant.\nThe CYP2C19 perpetrator fluconazole (Fluconazol HEXAL® 200 mg, HEXAL) was given for 5 days in oral doses of 400 mg on day 1 and 200 mg on days 2 to 5. […] A diary was used to ensure correct intake of fluconazole and rifampicin at home.\n(§1) Blood samples were centrifuged for 10 min at 2500 g and 4 °C, and separated plasma was distributed into 4 aliquots, each stored at − 20 °C until analysis.\nThe statistical analysis was performed using Prism 8.4 (GraphPad Software Inc., La Jolla, CA, USA)."}, "[3]": {"system": "CYP2C19", "details": "cited from earlier work"}, "[4]": {"details": "cited from earlier work"}, "[5]": {"system": "CYP3A", "assay": "Calculated metabolic clearance of microdosed midazolam (limited sampling AUC 2-4 h)", "details": "for midazolam metabolic clearance, % of the baseline value: during fluconazole", "experimental": "as §1\nMidazolam concentrations in plasma were determined by UPLC-MS/MS."}, "[6]": {"system": "CYP3A4", "details": "cited from earlier work"}},
  "note": "Where two headings read alike, the source gives them in different places.",
  "data": [
    {"compound": "Cc1c(O)cccc1C(=O)N[C@@H](CSc1ccccc1)[C@H](O)CN1C[C@H]2CCCC[C@H]2C[C@H]1C(=O)NC(C)(C)C", "note": "[nelfinavir]", "values": [
      {"measurement": "reduction of nelfinavir AUC by omeprazole", "setting": "[1]", "value": "approximately one third"},
      {"measurement": "reduction of nelfinavir Cmax by omeprazole", "setting": "[1]", "value": "approximately one third"}
    ]},
    {"compound": "COc1ccc2[nH]c([S+]([O-])Cc3ncc(C)c(OC)c3C)nc2c1", "note": "(stereo not shown) [omeprazole]", "values": [
      {"measurement": "dose-normalized Cmax", "setting": "[2]", "value": 896, "unit": "ng/mL"},
      {"measurement": "clearance", "setting": "[2]; 100 ug, omeprazole clearance", "value": 476, "unit": "mL/min"},
      {"measurement": "higher AUC in the poor metabolizer in comparison with the EM group", "setting": "[2]; 20 mg", "value": 6.5, "unit": "fold"},
      {"measurement": "higher Cmax in the poor metabolizer in comparison with the EM group", "setting": "[2]; 20 mg", "value": "threefold"},
      {"measurement": "Cl/F", "setting": "[2]; 100 ug", "value": 379, "unit": "mL/min"},
      {"measurement": "Tmax", "setting": "[2]; 100 ug", "value": 21.8, "unit": "min"},
      {"measurement": "Tmax", "setting": "[2]; 100 ug, tmax (harmonic mean)", "value": 15, "unit": "min"},
      {"measurement": "Cl/F", "setting": "[2]; 20 mg", "value": 388, "unit": "mL/min"},
      {"measurement": "Tmax", "setting": "[2]; 20 mg, tmax (harmonic mean)", "value": 178, "unit": "min"},
      {"measurement": "increase of omeprazole AUC", "setting": "[3]; 100 mg fluconazole daily for 5 days, healthy volunteers", "value": "sixfold"},
      {"measurement": "increase of omeprazole AUC", "setting": "[3]; 8 days of 50 mg fluconazole daily", "value": "2.7–2.8 fold"},
      {"measurement": "omeprazole AUC decreased to", "setting": "[3]; rifampicin 150 mg, 8 days, omeprazole microdose", "value": 22, "unit": "%"},
      {"measurement": "omeprazole AUC decreased to", "setting": "[3]; rifampicin 150 mg, 9 days, 20 mg omeprazole", "value": 20, "unit": "%"},
      {"measurement": "omeprazole AUC decreased to", "setting": "[3]; rifampicin 6 days, 450 mg daily, 20 mg omeprazole", "value": 12.9, "unit": "%"},
      {"measurement": "bioequivalence to an encapsulated formulation", "setting": "[3]; uncoated omeprazole with 48 mmol sodium bicarbonate", "value": "bioequivalent"}
    ]},
    {"compound": "OC(Cn1cncn1)(Cn1cncn1)c1ccc(F)cc1F", "note": "[fluconazole]", "values": [
      {"measurement": "effect of changes in gastric pH on fluconazole Cmax, tmax, and AUC", "setting": "[4]", "value": "did not affect"}
    ]},
    {"compound": "Cc1ncc2n1-c1ccc(Cl)cc1C(c1ccccc1F)=NC2", "note": "[midazolam]", "values": [
      {"measurement": "midazolam metabolic clearance, % of the baseline value", "setting": "[5]; with 100 µg omeprazole", "value": 28, "unit": "%"},
      {"measurement": "midazolam metabolic clearance, % of the baseline value", "setting": "[5]; with 20 mg omeprazole", "value": 26, "unit": "%"},
      {"measurement": "increase of midazolam metabolic clearance", "setting": "[5]; during rifampicin", "value": "10–12 fold"},
      {"measurement": "increase of midazolam metabolic clearance", "setting": "[5]; rifampicin day 5", "value": 10.1, "unit": "fold"},
      {"measurement": "increase of midazolam metabolic clearance", "setting": "[5]; rifampicin day 7", "value": 11.9, "unit": "fold"},
      {"measurement": "midazolam AUC decrease to % of the baseline value", "setting": "[6]; 600 mg rifampicin daily over 5 days", "value": 4.1, "unit": "%"},
      {"measurement": "increase of midazolam AUC", "setting": "[6]; oral 7.5 mg midazolam during fluconazole treatment", "value": 3.6, "unit": "fold"}
    ]}
  ]
}
